Consider 15 compounds from paper doi:10.1101/2025.05.10.653276 (bioRxiv, 2025).

Broadly, the IC50 is the concentration at which inhibition is half-maximal.

The structures appear in SMILES notation. Like-named read-outs stand apart in the source and are kept apart here.

In data set [1] the test system is B. ovis. As to the kind of experiment: microbe, parasite or virus in culture. The following applies: Brucella ovis. It counts as cell-based.
A further data set can be described thus: in vitro. The conditions noted are these: human.
In data set [2] the test system is B. ovis. As to the kind of experiment: microbe, parasite or virus in culture. Type of data set: cell-based, Brucella ovis. The following applies: for IC50: Brucella ovis.
Data set [3] relates to B. ovis. Type of data set: cell-based, Brucella ovis.
In data set [4] the test system is THP-1 cells.
The next data set relates to L-type Ca^2+ channels. The following applies: read-out: Reported IC50 for L-type Ca^2+ channels; cited from earlier work.
Data set [5] relates to B. abortus. Type of data set: cell-based, Brucella abortus.
In data set [6] the test system is B. ovis. It counts as cell-based, Brucella ovis. This is another data set of the same source.
Data set [7] deals with THP-1 cells. Type of data set: cell-based, human.
Data set [8] relates to B. abortus. As to the kind of experiment: microbe, parasite or virus in culture. It counts as cell-based. The conditions noted are these: Brucella abortus, THP-1, 48 h, read-out: IC50, intracellular B. abortus.
The subject of data set [9] is B. abortus. Nature of the data set: microbe, parasite or virus in culture. The following applies: for IC50: Brucella abortus, 48 h, read-out: IC50, axenic B. abortus WT (Fig. S6B). It counts as cell-based, Brucella abortus.
Data set [10] deals with B. ovis. Type of data set: cell-based, Brucella ovis. This is another data set of the same source.
Data set [11] concerns B. abortus. Type of data set: cell-based, Brucella abortus. The source holds these as a separate data set.
Where [12] appears, read: THP-1, read-out: Intracellular IC50.
The mark [13] stands for this setting: THP-1, 48 h, read-out: IC50, intracellular B. ovis growth.
[14] abbreviates: 48 h, read-out: IC50, axenic B. ovis growth.

Regarding `COc1ccc(CN2CCN(C(c3ccc(F)cc3)c3ccc(F)cc3)CC2)c(OC)c1OC` [Lomerizine], the IC50 is 9 µM in the data set with B. ovis [1] (setting [12]) and > 50 µM with B. ovis [2] (read-out: Axenic IC50). For the same compound, the CC50 in the data set “in vitro” was determined as 50 µM.
Regarding `O=C1CCc2ccc(OCCCCN3CCN(c4cccc(Cl)c4Cl)CC3)cc2N1` [Aripiprazole], the CC50 in the data set “in vitro” turned out to be 12 µM.
Regarding `N[C@@H]1C[C@H]1c1ccccc1` (racemic) [Tranylcypromine], the IC50 in the data set with B. ovis [1] (setting [12]) and in the data set with B. ovis [2] (read-out: Axenic IC50) was > 50 µM throughout. In addition, the CC50 in the data set “in vitro” is > 50 µM.
In the case of `COC(=O)C1=C(C)NC(C)=C(C(=O)OC)C1c1ccccc1[N+](=O)[O-]` [nifedipine], the “Hit in B. ovis intracellular screen” value in the data set with B. ovis [3] is “neither compound emerged as a hit”.
As to `COC(=O)C1=C(C)NC(C)=C(C(=O)OCCN(C)Cc2ccccc2)C1c1cccc([N+](=O)[O-])c1` (stereo not shown) [Nicardipine], the “Host cytotoxicity in B. ovis-infected THP-1 cells” value in the data set with THP-1 cells [4] is “not due to host cytotoxicity”. In addition, the half-inhibitory concentration (IC50) in the data set on L-type Ca^2+ channels was ~25 µM; with B. ovis [1] (setting [13]), 2.3 µM; with B. ovis [1] (setting [12]), 2 µM; with B. ovis [2] (setting [14]), > 25 µM; in the data set on B. ovis [2] (read-out: Axenic IC50) it was > 50 µM; in the data set on B. abortus [8] it was 4.4 µM. Also, the 50% inhibitory concentration (IC50) in the data set on B. abortus [9] is > 25 µM. In addition, the “WT B. abortus CFUs recovered from treated THP-1 cells compared to untreated controls” value in the data set with B. abortus [5] was “significantly fewer”. Besides, the CC50 in the data set “in vitro” was 49 µM. Further, the “Growth of WT B. ovis in liquid culture (kinetic growth assay)” value with B. ovis [6] is on record as “modest lag”. Besides, the “Effect on terminal density of B. ovis in axenic culture” value with B. ovis [2] is recorded as “did not affect the terminal density”. The “Increase in intracellular calcium and manganese levels” value in the data set with THP-1 cells [7] is 20–40%. Besides, in the data set with B. abortus [9], the “Sensitivity of WT and ΔbepE B. abortus in axenic conditions” value was “insensitive”.
As to `CCCCN(CCCC)CCC(O)c1cc2c(Cl)cc(Cl)cc2c2cc(C(F)(F)F)ccc12` (stereo not shown) [Halofantrine], the half-maximal inhibitory concentration (IC50) with B. ovis [1] (setting [12]) is > 50 µM; in the data set with B. ovis [2] (read-out: Axenic IC50), 11 µM. In addition, the CC50 in the data set “in vitro” was > 50 µM.
Take `COc1ccc(CCN(C)CCCC(C#N)(c2ccc(OC)c(OC)c2)C(C)C)cc1OC` (stereo not shown) [verapamil]: the “Hit in B. ovis intracellular screen” value with B. ovis [3] is “neither compound emerged as a hit”.
On to `CC(=O)SCC(Cc1ccccc1)C(=O)NCC(=O)OCc1ccccc1` (stereo not shown) [Racecadotril], for which the 50% inhibitory concentration (IC50) with B. ovis [1] (setting [12]) and in the data set on B. ovis [2] (read-out: Axenic IC50) was > 50 µM each time. Also, the CC50 in “in vitro” is > 50 µM.
Take `C[C@H](CCC(=O)NCCC[N+](C)(C)CCCS(=O)(=O)[O-])[C@H]1CC[C@H]2[C@@H]3[C@H](O)C[C@@H]4C[C@H](O)CC[C@]4(C)[C@H]3C[C@H](O)[C@]12C` [CHAPS]: the “Sensitivity of WT B. ovis on TSA blood plates” value (from here on “Sensitivity of WT B. ovis”) with B. ovis [10] is recorded as “highly sensitive”.
For `CCOc1ccc(NC(C)=O)cc1` [Phenacetin], the half-maximal inhibitory concentration (IC50) in the data set with B. ovis [1] (setting [12]) and in the data set with B. ovis [2] (read-out: Axenic IC50) was > 50 µM each time. For the same compound, the CC50 in “in vitro” was > 50 µM.
Regarding `COCCOC(=O)C1=C(C)NC(C)=C(C(=O)OC/C=C/c2ccccc2)C1c1cccc([N+](=O)[O-])c1` (stereo not shown) [Cilnidipine], the “Host cytotoxicity in B. ovis-infected THP-1 cells” value in the data set on THP-1 cells [4] is on record as “not due to host cytotoxicity”. The IC50 with B. ovis [1] (setting [13]) is 2.5 µM; in the data set with B. ovis [1] (setting [12]) it was 2 µM; in the data set with B. ovis [2] (setting [14]), 5.09 µM; in the data set on B. ovis [2] (read-out: Axenic IC50) it was 5 µM; in the data set with B. abortus [8] it was 13.5 µM; in the data set with B. abortus [9] it was > 25 µM. Besides, the “CFU recovery of ΔbepE B. abortus relative to wild-type in treated THP-1 cells” value in the data set on B. abortus [5] was “significant reduction in CFU recovery”. The CC50 in the data set “in vitro” was > 50 µM. The “Growth of WT B. ovis in liquid culture (kinetic growth assay)” value with B. ovis [6] is recorded as “failed to grow”. The “Concentrations inhibiting B. ovis growth in complex liquid broth” value with B. ovis [2] is “above 5 μM”. The “Sensitivity of WT and ΔbepE B. abortus in axenic conditions” value in the data set on B. abortus [9] is recorded as “insensitive”.
For the compound `CCCCCCCCCCCCOS(=O)(=O)[O-].[Na+]` [SDS, sodium dodecyl sulfate], the “Sensitivity of WT B. ovis” value in the data set on B. ovis [10] was “highly sensitive”.
With `OCCN(CCO)c1nc(N2CCCCC2)c2nc(N(CCO)CCO)nc(N3CCCCC3)c2n1` [Dipyridamole], the IC50 in the data set with B. ovis [1] (setting [12]) and in the data set on B. ovis [2] (read-out: Axenic IC50) was > 50 µM each time. In “in vitro”, this compound came in with a CC50 of 41 µM.
Turning to `c1ccc(-c2ccc(C(c3ccccc3)n3ccnc3)cc2)cc1` (stereo not shown) [Bifonazole], the IC50 in the data set with B. ovis [1] (setting [12]) turned out to be 14 µM; in the data set with B. ovis [2] (read-out: Axenic IC50), 4 µM. Besides, the CC50 in “in vitro” was > 50 µM.
`C[C@H](CCC(=O)O)[C@H]1CC[C@H]2[C@@H]3CC[C@@H]4C[C@H](O)CC[C@]4(C)[C@H]3C[C@H](O)[C@]12C` [deoxycholate]: in the data set with B. abortus [11], the “Growth of WT B. abortus on solid media” value was “modestly impaired WT growth” and the “Growth of ΔbepE B. abortus on solid media” value was “unable to grow”. Besides, the “Sensitivity of WT B. ovis” value with B. ovis [10] is listed as “highly sensitive”. Further, in the data set on B. abortus [9], the “IC50 (B. abortus strain WT)” value is recorded as 0.067%, the “IC50 (B. abortus strain ΔbepE glmS::bepDE)” value is reported as 0.052% and the “IC50 (B. abortus strain ΔbepE)” value was found to be 0.021%.
